Assay results reported in PubChem BioAssay (NCI).
Where “and” joins values, the source holds several entries; their conditions need not be identical. Equal values may be shown once.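 Each compound was tested at five concentrations against cells in 96-well plates for 48 hours. At the GI50, growth is halved. At the TGI there is no net growth.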

Experiments:
Assay in all cases: NCI tumour cell line growth inhibition, 48 h
786-0 renal = test system: 786-0 renal
EKVX NSCLC = test system: EKVX NSCLC
HCT-116 colon = test system: HCT-116 colon
LOX IMVI melanoma = test system: LOX IMVI melanoma
MOLT-4 leukemia = test system: MOLT-4 leukemia
SNB-19 CNS = test system: SNB-19 CNS
UACC-257 melanoma = test system: UACC-257 melanoma
SNB-75 CNS = test system: SNB-75 CNS

## C[C@]12CCc3sc(NCCc4ccccc4)nc3C1=CC[C@@H]1[C@@H]2CC[C@]2(C)C(=O)CC[C@@H]12
786-0 renal
  GI50: 2820 nM
  TGI: 9610 nM
EKVX NSCLC
  GI50: 90100 nM
  TGI: > 100000 nM
HCT-116 colon
  GI50: 2870 nM
  TGI: 12300 nM
LOX IMVI melanoma
  GI50: 1700 nM
  TGI: 3170 nM
MOLT-4 leukemia
  GI50: 2580 nM
  TGI: > 100000 nM
SNB-19 CNS
  GI50: 97500 nM
  TGI: > 100000 nM
UACC-257 melanoma
  GI50: 4920 nM
  TGI: 79800 nM

## COc1cccc(C2=C(c3c(C)n(C)c4ccccc34)C(=O)NC2=O)c1
786-0 renal
  GI50: > 25000 nM
  TGI: > 25000 nM
HCT-116 colon
  GI50: 19700 nM
  TGI: > 25000 nM
LOX IMVI melanoma
  GI50: > 25000 nM
  TGI: > 25000 nM
MOLT-4 leukemia
  GI50: 16100 nM
  TGI: > 25000 nM
SNB-19 CNS
  GI50: > 25000 nM
  TGI: > 25000 nM
SNB-75 CNS
  GI50: 6630 nM
  TGI: > 25000 nM
UACC-257 melanoma
  GI50: > 25000 nM
  TGI: > 25000 nM

## CCn1cc(C(=O)N/N=C/c2ccccc2)c(=O)c2cc(F)c(N3CCNC(C)C3)c(F)c21 (stereo not drawn)
786-0 renal
  GI50: 1680 nM
  TGI: 3250 nM
EKVX NSCLC
  GI50: 1680 nM
  TGI: 3090 nM

## CCN(Cc1ccc(F)cc1)c1ccc(CO)c(F)c1
786-0 renal
  GI50: 12600 nM
  TGI: 36600 nM
HCT-116 colon
  GI50: 2380 nM
  TGI: 13500 nM
LOX IMVI melanoma
  GI50: 13900 nM
  TGI: 31200 nM
MOLT-4 leukemia
  GI50: 21200 nM
  TGI: 57600 nM
SNB-19 CNS
  GI50: 27300 nM
  TGI: > 100000 nM
SNB-75 CNS
  GI50: 10000 nM
  TGI: > 86400 nM
UACC-257 melanoma
  GI50: 2330 nM
  TGI: 9290 nM

## c1ccc(CN2CCC3(CC2)SSC2(CCN(Cc4ccccc4)CC2)S3)cc1
786-0 renal
  TGI: > 100000 nM
HCT-116 colon
  TGI: > 100000 nM
LOX IMVI melanoma
  TGI: > 100000 nM
MOLT-4 leukemia
  TGI: > 100000 nM
SNB-75 CNS
  TGI: > 100000 nM
UACC-257 melanoma
  TGI: > 100000 nM

## O=C(Cn1c(=O)c(-c2ccccc2)nc2ccccc21)Nc1ccc(F)cc1
786-0 renal
  GI50: 75200 nM
  TGI: > 100000 nM
EKVX NSCLC
  GI50: 87100 nM
  TGI: > 100000 nM
HCT-116 colon
  GI50: 24000 nM
  TGI: > 100000 nM
LOX IMVI melanoma
  GI50: > 100000 nM
  TGI: > 100000 nM
SNB-19 CNS
  GI50: 41800 nM
  TGI: > 100000 nM
SNB-75 CNS
  GI50: 38800 nM
  TGI: > 100000 nM
UACC-257 melanoma
  GI50: > 100000 nM
  TGI: > 100000 nM

## CN(C)CCNC(=O)c1cc([N+](=O)[O-])cc2c1Oc1ccccc1O2
786-0 renal
  TGI: > 100000 nM
EKVX NSCLC
  TGI: > 100000 nM
HCT-116 colon
  TGI: > 100000 nM
LOX IMVI melanoma
  TGI: > 100000 nM
MOLT-4 leukemia
  TGI: 51100 nM
SNB-75 CNS
  TGI: 38900 nM
UACC-257 melanoma
  TGI: > 100000 nM

## CCOC(=O)c1c2c(n(Cc3ccc(Cl)cc3Cl)c1C)-c1nc[nH]c1C(=O)C2=O
786-0 renal
  GI50: 3370 nM
  TGI: 11300 nM
EKVX NSCLC
  GI50: 13000 nM
  TGI: 27400 nM
HCT-116 colon
  GI50: 2160 nM
  TGI: 5660 nM
LOX IMVI melanoma
  GI50: 3540 nM
  TGI: 13700 nM
MOLT-4 leukemia
  GI50: 1800 nM
  TGI: 3970 nM
SNB-19 CNS
  GI50: 12600 nM
  TGI: 26200 nM
SNB-75 CNS
  GI50: 1990 nM
  TGI: 9620 nM
UACC-257 melanoma
  GI50: 14200 nM
  TGI: 27300 nM

## O=C1C(N2CC2)=C(N2CC2)C(=O)C(N2CC2)=C1N1CC1
786-0 renal
  GI50: < 28.5 nM
  TGI: 984 nM
EKVX NSCLC
  GI50: 1700 nM
  TGI: 6880 nM
LOX IMVI melanoma
  GI50: < 20.9 nM
  TGI: 307 nM
MOLT-4 leukemia
  GI50: 765 nM
  TGI: > 100000 nM
SNB-19 CNS
  GI50: 140 nM
  TGI: 4320 nM
SNB-75 CNS
  GI50: 158 nM
  TGI: 1110 nM
UACC-257 melanoma
  GI50: 109 nM
  TGI: 749 nM

## O=C(O)C1OC1(c1cccc(Cl)c1)c1ccccc1Cl (stereo not drawn)
786-0 renal
  TGI: > 100000 nM
EKVX NSCLC
  TGI: 68400 nM
HCT-116 colon
  TGI: 43700 nM
LOX IMVI melanoma
  TGI: 44000 nM
MOLT-4 leukemia
  TGI: 82400 nM
SNB-19 CNS
  TGI: > 100000 nM
SNB-75 CNS
  TGI: 57600 nM
UACC-257 melanoma
  TGI: 70600 nM

## CCCCC[C@H]1C/C=C2/C(=O)C=C[C@@H]2C/C=C\CCCC(=O)O[C@@H](CCCCC)C/C=C2/C(=O)C=C[C@@H]2C/C=C\CCCC(=O)O1
786-0 renal
  GI50: 410 nM
  TGI: 811 nM
EKVX NSCLC
  GI50: 373 nM
  TGI: 1030 nM
HCT-116 colon
  GI50: 89.6 nM
  TGI: 333 nM
LOX IMVI melanoma
  GI50: 69.5 nM
  TGI: 217 nM
MOLT-4 leukemia
  GI50: 82.8 nM
  TGI: 898 nM
SNB-19 CNS
  GI50: 318 nM
  TGI: 809 nM
SNB-75 CNS
  GI50: 552 nM
  TGI: 2400 nM
UACC-257 melanoma
  GI50: 531 nM
  TGI: 1300 nM

## O=C(Nc1cccc(-n2cc(-c3ccncc3)c(-c3cc(O)cc(Cl)c3)n2)c1)Nc1ccc(Cl)c(C(F)(F)F)c1
786-0 renal
  GI50: 1830 nM
  TGI: 4450 nM
HCT-116 colon
  GI50: 1960 nM
  TGI: 4470 nM
LOX IMVI melanoma
  GI50: 1970 nM
  TGI: 4360 nM
MOLT-4 leukemia
  GI50: 1990 nM
  TGI: 5810 nM
SNB-19 CNS
  GI50: 3700 nM
  TGI: 16600 nM
SNB-75 CNS
  GI50: 1490 nM
  TGI: 6360 nM
UACC-257 melanoma
  GI50: 1990 nM
  TGI: 5340 nM

## COC1/C=C/C(C)C(C(C)C(OC)C(C)CCC(=O)C(C)C(C/C=C/N(C)C=O)OC)OC(=O)/C=C/C=C(\C)CC(OC)CC2=CC(=O)O[C@H](C2)C(C)C(OC)CC(OC)/C=C/C(C)C(OC)C1 (stereo partly drawn)
786-0 renal
  GI50: 15.5 nM
  TGI: 35.6 nM
EKVX NSCLC
  GI50: 123 nM
  TGI: 869 nM and 362 nM
HCT-116 colon
  GI50: 6.6 nM
  TGI: 115 nM and 14.8 nM
MOLT-4 leukemia
  GI50: 164 nM
  TGI: 110 nM
SNB-19 CNS
  GI50: 52 nM
  TGI: 212 nM and 90.4 nM
UACC-257 melanoma
  TGI: 25.7 nM

## CN1CCN(CCOc2ccc(-c3cnc4c(-c5ccc(C(F)(F)F)cc5)cnn4c3)cc2)CC1
786-0 renal
  GI50: 1670 nM
  TGI: 3160 nM
EKVX NSCLC
  GI50: 1510 nM
  TGI: 2970 nM
HCT-116 colon
  GI50: 1380 nM
  TGI: 2810 nM
LOX IMVI melanoma
  GI50: 1620 nM
  TGI: 3150 nM
SNB-19 CNS
  GI50: 1720 nM
  TGI: 3220 nM
SNB-75 CNS
  GI50: 1500 nM
  TGI: 2880 nM
UACC-257 melanoma
  GI50: 1660 nM
  TGI: 3340 nM

## Cc1cc(C(=C2C=CC(=Nc3ccccc3)C=C2)c2ccc(Nc3ccccc3)cc2)ccc1N
786-0 renal
  GI50: 259 nM
  TGI: 709 nM
EKVX NSCLC
  GI50: 334 nM
  TGI: 1260 nM
HCT-116 colon
  GI50: 287 nM
  TGI: 1020 nM
LOX IMVI melanoma
  GI50: 169 nM
  TGI: 310 nM
SNB-19 CNS
  GI50: 397 nM
  TGI: 1560 nM
SNB-75 CNS
  GI50: 598 nM
  TGI: 2220 nM
UACC-257 melanoma
  GI50: 286 nM
  TGI: 1040 nM

## CNCCCn1c2c(c3ccc([N+](=O)[O-])cc3c1=O)C(=O)c1cc(OC)cnc1-2
786-0 renal
  GI50: 36.2 nM
  TGI: 189 nM
EKVX NSCLC
  GI50: 273 nM
  TGI: 5830 nM
HCT-116 colon
  GI50: 28.3 nM
  TGI: 186 nM
LOX IMVI melanoma
  GI50: 25.9 nM
  TGI: 136 nM
MOLT-4 leukemia
  GI50: 30.6 nM
  TGI: 293 nM
SNB-19 CNS
  GI50: 39.4 nM
  TGI: 2070 nM
SNB-75 CNS
  GI50: 134 nM
  TGI: 2460 nM
UACC-257 melanoma
  GI50: 175 nM
  TGI: 953 nM

## C#CC1(O)C(COP(=O)(O)OC(COCCCCCCCCCCCCCCCCCC)COP(=O)(O)OCC2OC(n3cc(F)c(=O)[nH]c3=O)CC2O)OC(n2ccc(N)nc2=O)C1O (stereo not drawn)
786-0 renal
  GI50: 547 nM
  TGI: > 100000 nM
EKVX NSCLC
  GI50: 1420 nM and 5060 nM
  TGI: > 35200 nM and 71400 nM
HCT-116 colon
  GI50: < 24 nM and 142 nM
  TGI: > 100000 nM
LOX IMVI melanoma
  TGI: 7250 nM and 37700 nM
MOLT-4 leukemia
  TGI: > 100000 nM
SNB-19 CNS
  TGI: 16700 nM and 15100 nM
SNB-75 CNS
  GI50: 343 nM and 975 nM
  TGI: 18700 nM and 30200 nM
UACC-257 melanoma
  TGI: 97500 nM and 55800 nM
